Data reported in patent US10499640B2, “Herbicidal compounds” (SYNGENTA PARTICIPATIONS AG, priority 2014, dated 2019).

What was measured:
Format in all cases: in vivo
[1] = test system: Setaria faberi (SETFA); assay: Post-emergence herbicidal activity, glasshouse pot test; design: key: 5=total damage to plant; 0=no damage to plant; settings: Rate 1000 g/Ha; sprayed after 8 days cultivation; evaluated after 13 days; scale 0-5
Method: (§1) Seeds of a variety of test species were sown in standard soil in pots. After 8 days cultivation (post-emergence) under controlled conditions in a glasshouse (at 24/16° C., day/night; 14 hours light; 65% humidity), the plants were sprayed with an aqueous spray solution derived from the formulation of the technical active ingredient in acetone/water (50:50) solution containing 0.5% Tween 20 (polyoxyethelyene sorbitan monolaurate, CAS RN 9005-64-5). The test plants were then grown in a glasshouse under controlled conditions (at 24/16° C., day/night; 14 hours light; 65% humidity) and watered twice daily. After 13 days, the test was evaluated (5=total damage to plant; 0=no damage to plant).

[2] = test system: Abutilon theophrasti (ABUTH); assay: as above; design: key: 5=total damage to plant; 0=no damage to plant; settings: Rate 1000 g/Ha; sprayed after 8 days cultivation; evaluated after 13 days; scale 0-5
Method: as §1

[3] = test system: Echinochloa crus-galli (ECHCG); assay: as above; design: key: 5=total damage to plant; 0=no damage to plant; settings: Rate 1000 g/Ha; sprayed after 8 days cultivation; evaluated after 13 days; scale 0-5
Method: as §1

[4] = test system: Amaranthus retroflexus (AMARE); assay: as above; design: key: 5=total damage to plant; 0=no damage to plant; settings: Rate 1000 g/Ha; sprayed after 8 days cultivation; evaluated after 13 days; scale 0-5
Method: as §1

[5] = test system: Zea mays (ZEAMX); assay: as above; design: key: 5=total damage to plant; 0=no damage to plant; settings: Rate 1000 g/Ha; sprayed after 8 days cultivation; evaluated after 13 days; scale 0-5
Method: as §1

[6] = test system: Setaria faberi (SETFA); assay: Pre-emergence herbicidal activity, glasshouse pot test; design: key: 5=total damage to plant; 0=no damage to plant; settings: Rate 1000 g/Ha; sprayed one day after sowing; evaluated after 13 days; scale 0-5
Method: as §1, with “After” for “After 8 days”, “for one day (pre-emergence)” for “(post-emergence)”

[7] = test system: Abutilon theophrasti (ABUTH); assay: as above; design: key: 5=total damage to plant; 0=no damage to plant; settings: Rate 1000 g/Ha; sprayed one day after sowing; evaluated after 13 days; scale 0-5
Method: as §1, with “After” for “After 8 days”, “for one day (pre-emergence)” for “(post-emergence)”

[8] = test system: Echinochloa crus-galli (ECHCG); assay: as above; design: key: 5=total damage to plant; 0=no damage to plant; settings: Rate 1000 g/Ha; sprayed one day after sowing; evaluated after 13 days; scale 0-5
Method: as §1, with “After” for “After 8 days”, “for one day (pre-emergence)” for “(post-emergence)”

[9] = test system: Amaranthus retroflexus (AMARE); assay: as above; design: key: 5=total damage to plant; 0=no damage to plant; settings: Rate 1000 g/Ha; sprayed one day after sowing; evaluated after 13 days; scale 0-5
Method: as §1, with “After” for “After 8 days”, “for one day (pre-emergence)” for “(post-emergence)”

[10] = test system: Zea mays (ZEAMX); assay: as above; settings: Rate 1000 g/Ha; sprayed one day after sowing; evaluated after 13 days; scale 0-5
Method: as §1, with “After” for “After 8 days”, “for one day (pre-emergence)” for “(post-emergence)”

Row | Compound | SETFA damage score, application post-emergence [1] | ABUTH damage score, application post-emergence [2] | ECHCG damage score, application post-emergence [3] | AMARE damage score, application post-emergence [4] | ZEAMX damage score, application post-emergence [5] | SETFA damage score, application pre-emergence [6] | ABUTH damage score, application pre-emergence [7] | ECHCG damage score, application pre-emergence [8] | AMARE damage score, application pre-emergence [9] | ZEAMX damage score, application pre-emergence [10]
1 | CC(C)(C)c1cc(N2C(=O)N3CCCC3C2O)no1 (stereo not shown) [Compound A25] | 5 | 5 | 5 | 5 | 5 | 4 | 5 | 5 | 5 | 4
2 | CC1C(O)N(c2cc(C(C)(C)F)no2)C(=O)N1C (stereo not shown) [Compound A17] | 5 | 5 | 5 | 5 | 4 | 5 | 5 | 5 | 5 | 2
3 | COC(C)(C)c1cc(N2C(=O)N(C)CC2O)no1 (stereo not shown) [Compound A9] | 5 | 5 | 5 | 5 | 5 | 5 | 5 | 5 | 5 | 3
4 | C#CCN1C(=O)N(c2cc(C(C)(C)C)on2)C(O)C1C (single isomer, unassigned) [Compound A22] | 5 | 5 | 5 | 5 | 5 | 5 | 5 | 5 | 5 | 3
5 | CCOC1C(O)N(c2cc(C(C)(C)OC)on2)C(=O)N1C (stereo not shown) [Compound A14] | 5 | 5 | 5 | 5 | 4 | 5 | 5 | 5 | 5 | 2
6 | C[C@@H]1C(O)N(c2cc(C(C)(C)F)no2)C(=O)N1C (stereo partly shown) [Compound A20] | 5 | 5 | 5 | 5 | 4 | 4 | 5 | 5 | 5 | 3
7 | CN1CC(O)N(c2cc(C(C)(C)O)on2)C1=O (stereo not shown) [Compound A11] | 4 | 5 | 5 | 5 | 3 | 4 | 5 | 5 | 5 | 2
8 | C#CCC1C(O)N(c2cc(C(C)(C)C)on2)C(=O)N1CC#C (stereo not shown) [Compound A23] |  |  | 5 |  |  | 5 | 5 | 4 | 5 | 2
